This test deals with functional HyNaC heterotrimer. As to the kind of experiment: Screen of functional HyNaC heterotrimers in Xenopus oocytes for activation by Hydra-RFamides. Format: cell-based, Hydra magnipapillata. The settings on record: 5 μM peptide; Xenopus oocytes. As for the experimental part:
We tested the function of the new HyNaCs by co-expression of different HyNaC subunit combinations in Xenopus oocytes. We screened for functional subunit combinations by application of 5 μM Hydra-RFamide I, a potent agonist of HyNaC2/3/5 [4]. When we expressed an individual HyNaC subunit we could never elicit currents. […] When HyNaC2 was part of the injected cRNA pool, however, Hydra-RFamide I elicited currents. Simultaneous expression of HyNaC2 with a single other HyNaC resulted only in a functional channel when we co-expressed HyNaC2 and HyNaC3; it was already known that HyNaC2 and HyNaC3 form a low-affinity peptide-gated channel.
Dashed line represents the zero current level. Amino acid sequences of Hydra-RFamides I to V are shown at the bottom. HyNaC, Hydra Na^+ channel.
Since Hydra-RFamide II had been shown previously to activate HyNaC2/3/5 [4], we tested Hydra-RFamides II to V for channel activation.
To study the biophysical properties of the new HyNaCs, cRNA of HyNaCs was synthesized in vitro (mMessage mMachine kit, Ambion, Austin, Texas, USA) and injected into Xenopus laevis oocytes of stage V and VI. After injection, oocytes were incubated for one to two days at 19°C in oocyte Ringer’s solution 2 (OR-2), which contained (in mM): 82.5 NaCl, 2.5 KCl, 1.0 Na2HPO4, 1.0 MgCl2, 1.0 CaCl2, 5.0 HEPES, 0.5 g/l PVP, 1,000 U/l penicillin and 10 mg/l streptomycin, NaOH was used to adjust pH to 7.3. Whole cell currents were recorded from defolliculated oocytes by two-electrode voltage-clamp (TEVC) using the amplifier TurboTec 03X (npi electronic GmbH, Tamm, Germany). Standard bath solution (in mM: 140 NaCl, 10 HEPES, 1.8 CaCl2 and 1.0 MgCl2. NaOH was used to adjust pH to 7.4.) was exchanged by a pump driven system combined with the oocyte testing carousel (OTC), which was controlled by the interface OTC-20 [53]. To control the OTC-20 and to record the data to the hard drive, the software CellWorks (version 5.1.1; npi electronic GmbH, Tamm, Germany) was used. Data were sampled at 0.1 to 1 kHz and filtered at 20 Hz. HyNaCs are permeable for Ca^2+, activating an endogenous CaCC [40]. Therefore, unless otherwise indicated, oocytes were injected with 50 nl of 20 mM EGTA 30 to 180 minutes before measurements. Reversal potentials and Ca^2+ permeabilities of HyNaCs were studied as described previously.

3 substances from publication PMC4212090, “The comprehensive analysis of DEG/ENaC subunits in Hydra reveals a large variety of peptide-gated channels, potentially involved in neuromuscular transmission” (BMC Biology, 2014) can be followed below.

Hydra-RFamide III: the “activation of functional HyNaC heterotrimers (current elicited)” value is “did not elicit a current”. The same measure for Hydra-RFamide IV: “did not elicit a current”; for Hydra-RFamide V: “did not elicit a current”.
